Laboratory results as given in ChEMBL document CHEMBL1201862, “PubChem BioAssay data set” (2004).
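Results reflect a 48-hour exposure of cells in 96-well plates to compound at five concentrations. Here, GI50 denotes the concentration required for 50% inhibition of growth.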 The source made the active and inactive calls. Cut-off read from the data, not from the text of the source: active = GI50 up to about 1.1 µM and inactive = higher.

Columns and labels:
Assay in all cases: NCI-60 cell line screen, 48 h
TK-10 = test system: TK-10
NCI-H460 = test system: NCI-H460
SF-539 = test system: SF-539
SR = test system: SR
SNB-75 = test system: SNB-75
IGROV-1 = test system: IGROV-1
HCT-15 = test system: HCT-15
EKVX = test system: EKVX
SK-MEL-2 = test system: SK-MEL-2
RPMI-8226 = test system: RPMI-8226
Malme-3M = test system: Malme-3M
NCI-H226 = test system: NCI-H226
K562 = test system: K562
HCC 2998 = test system: HCC 2998
786-0 = test system: 786-0
SF-268 = test system: SF-268
M14 = test system: M14
RXF 393 = test system: RXF 393
UO-31 = test system: UO-31
HOP-92 = test system: HOP-92

SMILES	GI50 (TK-10)	GI50 (NCI-H460)	GI50 (SF-539)	GI50 (SR)	GI50 (SNB-75)	GI50 (IGROV-1)	GI50 (HCT-15)	GI50 (EKVX)	GI50 (SK-MEL-2)	GI50 (RPMI-8226)	GI50 (Malme-3M)	GI50 (NCI-H226)	GI50 (K562)	GI50 (HCC 2998)	GI50 (786-0)	GI50 (SF-268)	GI50 (M14)	GI50 (RXF 393)	GI50 (UO-31)	GI50 (HOP-92)
COc1cc2c3c(cc(Cl)nc3c1OC)C(=O)C(=O)N2	18.7 µM (inactive)	20.7 µM (inactive)	20.2 µM (inactive)	3.26 µM (inactive)	15.7 µM (inactive)	9.89 µM (inactive)	19.2 µM	6.81 µM (inactive)	14.1 µM (inactive)	2.68 µM (inactive)	2.06 µM (inactive)	21.1 µM (inactive)	2.91 µM (inactive)	18.2 µM (inactive)	5.94 µM (inactive)	17.4 µM (inactive)	15.6 µM (inactive)	13.6 µM (inactive)	13.6 µM (inactive)	1.81 µM (inactive)
Oc1ccccc1/C=N/c1ccc(-c2nc3ccccc3s2)cc1	31.2 µM (inactive)	25 µM (inactive)	30.8 µM (inactive)	33.7 µM (inactive)	36.1 µM (inactive)	28.2 µM (inactive)	24.4 µM	21.3 µM (inactive)	21.3 µM (inactive)	23.2 µM (inactive)	37.1 µM (inactive)	24.8 µM (inactive)	24.6 µM (inactive)	20.3 µM (inactive)	29.2 µM (inactive)	23.2 µM (inactive)	37.1 µM (inactive)	28.5 µM (inactive)	28.5 µM (inactive)	17.7 µM (inactive)
COc1ccc(OC)c(C2CCc3nc4nc(N)nc(N)c4cc3C2)c1 (stereo not given)	9.77 µM (inactive)	4.66 µM (inactive)	3.01 µM (inactive)	2.48 µM (inactive)	1.94 µM (inactive)	10.2 µM (inactive)	14.1 µM	13.4 µM (inactive)	1.97 µM (inactive)	5.78 µM (inactive)	1.92 µM (inactive)	8.47 µM (inactive)	2.31 µM (inactive)	1.74 µM (inactive)	2.69 µM (inactive)	2.96 µM (inactive)	1.8 µM (inactive)	2.69 µM (inactive)	3.25 µM (inactive)	2.19 µM (inactive)
CC(NNC(=O)c1cc[n+]([BH2-]C#N)cc1)c1cccc(F)c1 (stereo not given)	> 100 µM (inactive)	> 100 µM (inactive)	> 100 µM (inactive)	> 100 µM (inactive)	> 100 µM (inactive)	> 100 µM (inactive)	> 100 µM	> 100 µM (inactive)	> 100 µM (inactive)	> 100 µM (inactive)	> 100 µM (inactive)	> 100 µM (inactive)	> 100 µM (inactive)	> 100 µM (inactive)	> 100 µM (inactive)	> 100 µM (inactive)	> 100 µM (inactive)	> 100 µM (inactive)	> 100 µM (inactive)	> 100 µM (inactive)
CCOC(=O)C1C=C2O[C@@H]3OC4(CCCCC4)O[C@@H]3C2[C@H]2C(=O)C=CC(=O)[C@@]12C(=O)OC (stereo not given in full)	13.6 µM (inactive)	14.6 µM (inactive)	3.15 µM (inactive)	2.71 µM (inactive)	19.4 µM (inactive)	10.3 µM (inactive)	9.4 µM	16.6 µM (inactive)	16.1 µM (inactive)	2.84 µM (inactive)	17.2 µM (inactive)	20.6 µM (inactive)	5.45 µM (inactive)	14.3 µM (inactive)	7.21 µM (inactive)	12.4 µM (inactive)	15.9 µM (inactive)	1.66 µM (inactive)	16.3 µM (inactive)	12.2 µM (inactive)
Nc1ccc(Cn2ccc3c4c(N)nc(N)nc4ccc32)cc1	1.58 µM (inactive)	< 0.01 µM (active)	< 0.0184 µM (active)	0.0393 µM (active)	0.804 µM (active)	< 0.01 µM (active)	< 0.01 µM	6.47 µM (inactive)	1.17 µM (inactive)	0.165 µM (active)	0.137 µM (active)	4.27 µM (inactive)	< 0.01 µM (active)	< 0.0268 µM (active)	< 0.0252 µM (active)	< 0.0156 µM (active)	< 0.0114 µM (active)	0.118 µM (active)	0.406 µM (active)	0.71 µM (active)
CC(C)=CC1CC(=[N+]=[N-])C(=O)C1(C)C (stereo not given)	> 100 µM (inactive)	99.5 µM (inactive)	> 100 µM (inactive)	23.1 µM (inactive)	> 46.7 µM (inactive)	> 100 µM (inactive)	86.5 µM	> 100 µM (inactive)	> 100 µM (inactive)	> 51.8 µM (inactive)	> 100 µM (inactive)	> 100 µM (inactive)	> 71.1 µM (inactive)	> 100 µM (inactive)	> 100 µM (inactive)	> 100 µM (inactive)	> 100 µM (inactive)	> 31.6 µM (inactive)	> 59 µM (inactive)	> 80.7 µM (inactive)
